# Structures can show the parent of a compound that is named as a salt.
# Test system: Interferon-α
# Assay: Induction of Interferon-α using cryopreserved human PBMCs
# Format: cell-based
# Conditions: PBMC, 24 h incubation, normalised to 1 uM resiquimod, read-out: mean pEC50 for induction of IFN-α (converted)
# Method: Assay for the Induction of Interferon-α Using Cryopreserved Human Peripheral Blood Mononuclear Cells (PBMCs)
# Compounds were dissolved in DMSO. Serial 2-fold dilutions with DMSO were prepared and 0.25 μl dispensed into 384-well clear Greiner polypropylene plates.
# Blood samples of up to 200 ml were obtained from healthy human donors. Whole blood in 25 ml volumes was overlaid onto 15 ml Ficoll gradients in Leucosep tubes, and centrifuged at 1000 g for 20 min. Cells in the band at the plasma/histopaque interface were carefully removed and washed twice with PBS (centrifuged at 400 g for 5 min to harvest). The final pellet was resuspended in freezing medium (90% Heat-inactivated serum, 10% DMSO) to a cell concentration of 4×10^7 cells/ml. The resuspended cells were then cryopreserved (frozen) using a rate controlled freezer, and stored at −140° C. for up to 4 months.
# Immediately prior to assay, vials of cryopreserved (frozen) PBMCs were thawed rapidly in a water bath at 37° C. A 1:10 dilution of the cells in trypan blue was prepared and counted. The PBMCs were then diluted in growth media [RPMI 1640 containing 10% fetal calf serum (invitrogen), Penicillin+[…] (Gibco cat. #25030-024, 1:50), L-Glutamine 2 mM, and 1000 units/ml recombinant human IFN-gamma (Preprotech catalogue #300-02)] to a density of 1×10^6 cells/ml, and 50 ul/well dispensed to 384-well clear Greiner polypropylene plates containing 0.25 μl DMSO or test compound in 0.25 μl DMSO. […] Plates were incubated for 24 h at 37° C. in 5% CO2.
# A multi-isoform immunoassay was used to quantify IFN-α in PBMC supernatants. Rabbit polyclonal antibody against human IFN-α (catalogue number 31101, Stratech Scientific) was diluted 1:10000 in assay buffer (RPMI 1640 containing 10% fetal calf serum, Invitrogen) and 20 μl was added to each well of an MSD (Meso-Scale Discovery) single small-spot 384-well GAR (goat anti-rabbit antibody coated) plate. The plate was incubated for 1 hour at room temperature with vigorous shaking. Following three washes with PBS, 20 μl of cell supernatant were added to each well of the plate. The plate was then incubated for 1 hour at room temperature with vigorous shaking. A pair of monoclonal antibodies to IFN-α (catalogue numbers 21100 and 21112, Stratech Scientific) were labelled with sulfo-TAG (MSD), diluted 1:1000 in assay buffer and 20 μl added to each well of the plate. The plate was further incubated for 1 hour at room temperature with vigorous shaking. Following three washes with PBS, 30 μl of x2 T buffer (MSD) was added to each well and the plate was read on an MSD Sector 6000 plate reader.
# Data were normalised to internal plate controls of 1 uM resiquimod (n=16) and DMSO (n=16). pEC50 values were derived by 4-parameter curve fit with IRLS in ActivityBase, from 11-point, two-fold serial dilution of test compounds.
row,SMILES,EC50 [nM]
1,"CCCCOc1nc(N)c2[nH]c(=O)n(CCC3CCN(CCC(C)C)CC3)c2n1 [Example 85, 6-Amino-2-(butyloxy)-9-{2-[1-(3-methylbutyl)-4-piperidinyl]ethyl}-7,9-dihydro-8H-purin-8-one]",< 1580
2,"CCCCOc1nc(N)c2[nH]c(=O)n(CCC3CCN(C4CCCC4)CC3)c2n1 [Example 86, 6-Amino-2-(butyloxy)-9-[2-(1-cyclopentyl-4-piperidinyl)ethyl]-7,9-dihydro-8H-purin-8-one]",< 1580
3,"CCCCOc1nc(N)c2[nH]c(=O)n(CCC3CCN(CC4CCCC4)CC3)c2n1 [Example 87, 6-Amino-2-(butyloxy)-9-{2-[1-(cyclopentylmethyl)-4-piperidinyl]ethyl}-7,9-dihydro-8H-purin-8-one]",< 1580
4,"CCCCOc1nc(N)c2[nH]c(=O)n(CCC3CCN(C4CCCCC4)CC3)c2n1 [Example 88, 6-Amino-2-(butyloxy)-9-[2-(1-cyclohexyl-4-piperidinyl)ethyl]-7,9-dihydro-8H-purin-8-one]",< 1580
5,"CCCCOc1nc(N)c2[nH]c(=O)n(CCC3CCN(CCC4CCCCC4)CC3)c2n1 [Example 89, 6-Amino-2-(butyloxy)-9-{2-[1-(2-cyclohexylethyl)-4-piperidinyl]ethyl}-7,9-dihydro-8H-purin-8-one]",< 1580
6,"CCC[C@H](C)Oc1nc(N)c2[nH]c(=O)n(CCC3CCNCC3)c2n1 [Example 90, 6-Amino-2-{[(1S)-1-methylbutyl]oxy}-9-[2-(4-piperidinyl)ethyl]-7,9-dihydro-8H-purin-8-one]",< 1580
7,"CCCCOc1nc(N)c2[nH]c(=O)n(CCCC3CCNCC3)c2n1 [Example 93, 6-Amino-2-(butyloxy)-9-[3-(4-piperidinyl)propyl]-7,9-dihydro-8H-purin-8-one]",< 1580
8,"CCCCOc1nc(N)c2[nH]c(=O)n(CCCC3CCN(CC(C)C)CC3)c2n1 [Example 97, 6-Amino-2-(butyloxy)-9-{3-[1-(2-methylpropyl)-4-piperidinyl]propyl}-7,9-dihydro-8H-purin-8-one]",< 1580
9,"CCCCOc1nc(N)c2[nH]c(=O)n(CCCC3CCN(C(CC)CC)CC3)c2n1 [Example 98, 6-Amino-2-(butyloxy)-9-{3-[1-(1-ethylpropyl)-4-piperidinyl]propyl}-7,9-dihydro-8H-burin-8-one]",< 1580
10,"CCCCOc1nc(N)c2[nH]c(=O)n(CCCC3CCN(CCC(C)C)CC3)c2n1 [Example 99, 6-Amino-2-(butyloxy)-9-{3-[1-(3-methylbutyl)-4-piperidinyl]propyl}-7,9-dihydro-8H-purin-8-one]",< 1580
11,"CCCCOc1nc(N)c2[nH]c(=O)n(CCCC3CCN(C4CCCC4)CC3)c2n1 [Example 100, 6-Amino-2-(butyloxy)-9-[3-(1-cyclopentyl-4-piperidinyl)propyl]-7,9-dihydro-8H-purin-8-one]",< 1580
12,"CCCCOc1nc(N)c2[nH]c(=O)n(CCCC3CCN(CC4CCCC4)CC3)c2n1 [Example 101, 6-Amino-2-(butyloxy)-9-{3-[1-(cyclopentylmethyl)-4-piperidinyl]propyl}-7,9-dihydro-8H-purin-8-one]",< 1580
13,"CCCCOc1nc(N)c2[nH]c(=O)n(CCCC3CCN(CCC4CCCCC4)CC3)c2n1 [Example 103, 6-Amino-2-(butyloxy)-9-{3-[1-(2-cyclohexylethyl)-4-piperidinyl]propyl}-7,9-dihydro-8H-purin-8-one]",< 1580
14,"CCC[C@H](C)Oc1nc(N)c2[nH]c(=O)n(CCCC3CCN(CC)CC3)c2n1 [Example 105, 6-Amino-9-[3-(1-ethyl-4-piperidinyl)propyl]-2-{[(1S)-1-methylbutyl]oxy}-7,9-dihydro-8H-purin-8-one]",< 1580
15,"CCCCOc1nc(N)c2[nH]c(=O)n(CCCCC3CCNCC3)c2n1 [Example 107, 6-Amino-2-(butyloxy)-9-[4-(4-piperidinyl)butyl]-7,9-dihydro-8H-purin-8-one]",< 1580
16,"CCCCOc1nc(N)c2[nH]c(=O)n(CCCCC3CCN(C(C)C)CC3)c2n1 [Example 109, 6-Amino-2-(butyloxy)-9-{4-[1-(1-methylethyl)-4-piperidinyl]butyl}-7,9-dihydro-8H-purin-8-one]",< 1580

row,SMILES,EC50 [nM]
1,"CCCCOc1nc(N)c2[nH]c(=O)n(CCCCC3CCN(CCCC)CC3)c2n1 [Example 110, 6-Amino-2-(butyloxy)-9-[4-(1-butyl-4-piperidinyl)butyl]-7,9-dihydro-8H-purin-8-one]",< 1580
2,"CCCCOc1nc(N)c2[nH]c(=O)n(CCCCC3CCN(CC(C)C)CC3)c2n1 [Example 111, 6-Amino-2-(butyloxy)-9-{4-[1-(2-methylpropyl)-4-piperidinyl]butyl}-7,9-dihydro-8H-purin-8-one]",< 1580
3,"CCCCOc1nc(N)c2[nH]c(=O)n(CCCCC3CCN(C(CC)CC)CC3)c2n1 [Example 112, 6-Amino-2-(butyloxy)-9-{4-[1-(1-ethylpropyl)-4-piperidinyl]butyl}-7,9-dihydro-8H-purin-8-one]",< 1580
4,"CCCCOc1nc(N)c2[nH]c(=O)n(CCCCC3CCN(CCC(C)C)CC3)c2n1 [Example 113, 6-Amino-2-(butyloxy)-9-{4-[1-(3-methylbutyl)-4-piperidinyl]butyl}-7,9-dihydro-8H-purin-8-one]",< 1580
5,"CCCCOc1nc(N)c2[nH]c(=O)n(CCCCC3CCN(C4CCCC4)CC3)c2n1 [Example 114, 6-Amino-2-(butyloxy)-9-[4-(1-cyclopentyl-4-piperidinyl)butyl]-7,9-dihydro-8H-purin-8-one]",< 1580
6,"CCCCOc1nc(N)c2[nH]c(=O)n(CCCCC3CCN(CC4CCCC4)CC3)c2n1 [Example 115, 6-Amino-2-(butyloxy)-9-{4-[1-(cyclopentylmethyl)-4-piperidinyl]butyl}-7,9-dihydro-8H-purin-8-one]",< 1580
7,"CCCCOc1nc(N)c2[nH]c(=O)n(CCCCC3CCN(C4CCCCC4)CC3)c2n1 [Example 116, 6-Amino-2-(butyloxy)-9-[4-(1-cyclohexyl-4-piperidinyl)butyl]-7,9-dihydro-8H-purin-8-one]",< 1580
8,"CCCCOc1nc(N)c2[nH]c(=O)n(CCCCC3CCN(CCC4CCCCC4)CC3)c2n1 [Example 117, 6-Amino-2-(butyloxy)-9-{4-[1-(2-cyclohexylethyl)-4-piperidinyl]butyl}-7,9-dihydro-8H-purin-8-one]",< 1580
9,"CCC[C@H](C)Oc1nc(N)c2[nH]c(=O)n(CCCCC3CCNCC3)c2n1 [Example 118, 6-Amino-2-{[(1S)-1-methylbutyl]oxy}-9-[4-(4-piperidinyl)butyl]-7,9-dihydro-8H-purin-8-one]",< 1580
10,"CCCCNc1nc(N)c2[nH]c(=O)n(CCCCC3CCNCC3)c2n1 [Example 120, 6-Amino-2-(butylamino)-9-[4-(4-piperidinyl)butyl]-7,9-dihydro-8H-purin-8-one]",< 1580
11,"CCCCNc1nc(N)c2[nH]c(=O)n(CCCCC3CCN(CC)CC3)c2n1 [Example 121, 6-Amino-2-(butylamino)-9-[4-(1-ethyl-4-piperidinyl)butyl]-7,9-dihydro-8H-purin-8-one]",< 1580
12,"CCCCOc1nc(N)c2[nH]c(=O)n(CCCCCC3CCN(CC)CC3)c2n1 [Example 123, 6-Amino-2-(butyloxy)-9-[5-(1-ethyl-4-piperidinyl)pentyl]-7,9-dihydro-8H-purin-8-one]",< 1580
13,"CCCCOc1nc(N)c2[nH]c(=O)n(CCCCCC3CCN(CCC)CC3)c2n1 [Example 124, 6-Amino-2-(butyloxy)-9-[5-(1-propyl-4-piperidinyl)pentyl]-7,9-dihydro-8H-purin-8-one]",< 1580
14,"CCCCOc1nc(N)c2[nH]c(=O)n(CCCCCC3CCN(C(C)C)CC3)c2n1 [Example 125, 6-Amino-2-(butyloxy)-9-{5-[1-(1-methylethyl)-4-piperidinyl]pentyl}-7,9-dihydro-8H-purin-8-one]",< 1580
15,"CCCCOc1nc(N)c2[nH]c(=O)n(CCCCCC3CCN(CCCC)CC3)c2n1 [Example 126, 6-Amino-2-(butyloxy)-9-[5-(1-butyl-4-piperidinyl)pentyl]-7,9-dihydro-8H-purin-8-one]",< 1580
16,"CCCCOc1nc(N)c2[nH]c(=O)n(CCCCCC3CCN(CC(C)C)CC3)c2n1 [Example 127, 6-Amino-2-(butyloxy)-9-{5-[1-(2-methylpropyl)-4-piperidinyl]pentyl}-7,9-dihydro-8H-purin-8-one hydrochloride]",< 1580
